{"source": "paper PMC6560211", "about": "“ApoAI-derived peptide increases glucose tolerance and prevents formation of atherosclerosis in mice” (Diabetologia, 2019)", "key": {"J774 macrophages": {"tested_on": "J774 macrophages", "assay": "Cholesterol efflux assay", "format": "cell-based, mouse", "protocol": "The mouse macrophage-like cell line J774 (ATCC TIB-67), loaded with ^3H-cholesterol, was used for cholesterol efflux to acceptors (RG54 or ApoA-I) as previously described.\nTo investigate the functionality of the RG54 peptide in a physiological context, cholesterol efflux from J774 macrophages was employed. Cultured macrophages were loaded with radioactive cholesterol, then incubated for 2 or 4 h with RG54 peptide or ApoA-I at the shown concentrations, followed by quantification of the amount of effluxed ^3H-cholesterol (Fig. 1a,b). […] As most circulating ApoA-I is bound to lipids in various species of HDL, and as the RG54 peptide was shown in the lipid clearance assay to efficiently associate with lipids, we reasoned that lipidation of the RG54 peptide might improve its catalytic activity. To explore this, RG54 was first incubated with lipids as described in ESM Fig. 4d, followed by comparative analyses of the catalytic capacities in cholesterol efflux from cholesterol-loaded macrophages.\nFig. 1 Cholesterol efflux activity of RG54 compared with ApoA-I. (a, b) Concentration dependence of cholesterol efflux from ^3H-cholesterol-labelled J774 cells by lipid-free RG54 or ApoA-I was measured after 2 h (a) or 4 h (b). n=5 for both. Vmax (c) and KM (d) were calculated using the Michaelis–Menten equation. (e–g) Efflux activity of lipid-free (LF) and lipid-bound (LB) RG54 was compared after 2 h. n=3. An acyl CoA:cholesterol O-acyltransferase (ACAT) inhibitor and 8-(4-chlorophenylthio; CPT)-cAMP were used in all experiments to prevent formation of cholesteryl esters of ^3H-cholesterol and to induce expression of ABCA1, respectively. Values are means ± SEM. **p≤0.01, ***p≤0.001"}, "INS-1E cells": {"tested_on": "INS-1E cells", "assay": "Glucose-stimulated insulin secretion assay", "format": "cell-based, rat", "conditions": "2 h preincubation with RG54 at 3.3 mmol/l glucose, then 1 h at 20 mmol/l glucose without peptide; ELISA; three independent experiments", "protocol": "INS-1E cells were preincubated for 2 h with HEPES KRB supplemented with 3.3 mmol/l glucose and RG54, then stimulated for 1 h with HEPES KRB supplemented with either 3.3 or 20 mmol/l glucose but no RG54 peptide, and insulin secretion was analysed using ELISA (Mercodia, Uppsala, Sweden). See ESM Methods for more details.\nFig. 3 RG54 induces skeletal muscle glucose uptake and primes INS-1E cells to increase GSIS. (a) C2C12 skeletal muscle myotubes were incubated in the absence or presence of different concentrations of RG54 or with insulin, followed by glucose uptake measurements. Values are means ± SEM from three independent experiments. *p≤0.05, **p≤0.01, ***p≤0.001 vs control. […] Insulin secretion was measured after 1 h glucose challenge. […]\nPeptide concentration was determined at 205 nm using a NanoDrop 2000c spectrophotometer (Thermo Scientific) and integrity was analysed by Tris-Tricine SDS-PAGE followed by coomassie staining or by circular dichroism spectroscopy (CD). […]\nThe primary goal of this study was to investigate the anti -diabetic and anti-atherosclerotic efficacy of a novel ApoA -I derived peptide. Using a range of in vitro models, we assessed the effects of the peptide on HDL formation, cholesterol efflux, insulin secretion, and non -insulin dependent glucose uptake. […] Peptide effects were measured relative to full length ApoA -I and vehicle controls. […]"}}, "note": "No end group written: not given here."}
{"substance": "Ac-AEYHAKATEHLSTLSEKAKPALEDLRQGLLPVLESFKVSFLSALEEYTKKLNTQ [RG54]", "values": [{"measurement": "Vmax of cholesterol efflux, lipid-bound vs lipid-free", "setting": "J774 macrophages; RG54 first incubated with lipids (DMPC), 2 h, n=3", "result": "twofold increase"}, {"measurement": "Vmax of cholesterol efflux", "setting": "J774 macrophages; lipid-free RG54 compared with ApoA-I, Michaelis-Menten, n=5", "result": "significantly lower"}, {"measurement": "cholesterol efflux", "setting": "J774 macrophages; lipid-free, 3H-cholesterol-loaded J774, 2 or 4 h, ACAT inhibitor and CPT-cAMP, n=5", "result": "dose-dependent manner"}, {"measurement": "GSIS compared with control cells", "setting": "INS-1E cells", "result": "up to a twofold increase"}]}
